From article PMC9603181, “RNA-Dependent RNA Polymerase of the Second Human Pegivirus Exhibits a High-Fidelity Feature” (Microbiology Spectrum, 2022) come the findings set out here.

Format in all cases: biochemical
The target in assay [1] is T1, HPgV-2 NS5B (HPgV-2 RdRp) (Human hepegivirus, UniProt A0A2L0ARU6).
T1 construct: NS5B residues 1-551 (QSYN to GASR) of the genome polyprotein, C-terminal truncation, C-terminal His6 tag kept, pET-26b, E. coli BL21(DE3)
As to the kind of experiment: two-step single-nucleotide-incorporation assay, time course, urea-PAGE, Stain-All. To be noted: T30/pGG, CTP 500 uM as only step 2 substrate, Mg2+/Mn2+, pH 6.5, 30 C.

For assay [2], the target named is T2, HCV NS5B (HCV RdRp) (Orthohepacivirus hominis, UniProt A0A140D8J5).
T2 construct: NS5B residues 1-570 (SMSY to ARFR) of the genome polyprotein, C-terminal truncation, C-terminal His6 tag kept, pET-26b, E. coli BL21(DE3)
The description is as above. As to conditions: T30/pGG, CTP 500 uM as only step 2 substrate, no Mn2+, pH 6.5, 30 C.

The target of assay [3] is T2, HCV NS5B (HCV RdRp). As to the kind of experiment: two-step single-nucleotide-incorporation assay, urea-PAGE, Stain-All. To be noted: T32 RNA template, pGG primer, pH 6.5, 30 C; sof-TP dose response from 50 uM; UTP analogue, chain terminator.

For `Nc1ccn([C@@H]2O[C@H](COP(=O)(O)OP(=O)(O)OP(=O)(O)O)[C@@H](O)[C@H]2O)c(=O)n1` [CTP], the “two-step single-nucleotide-incorporation assay, time course, urea-PAGE, Stain-Al” value in assay [1] was “no significant difference in the synthesis of the correct P10 between HCV and HPgV-2 NS5B”; on HCV NS5B (HCV RdRp) [2] it was “no significant difference in the synthesis of the correct P10 between HCV and HPgV-2 NS5B”. `C[C@@]1(F)[C@H](O)[C@@H](COP(=O)(O)OP(=O)(O)OP(=O)(O)O)O[C@H]1n1ccc(=O)[nH]c1=O` [PSI-7409]: the “two-step single-nucleotide-incorporation assay, urea-PAGE, Stain-All” value at HCV NS5B (HCV RdRp) [3] is recorded as “a clear P9S band was observed in the presence of HCV NS5B”.
